Assay results published in US20260055137A1, “NOVEL ISOLATED PEPTIDES, PROTEIN HYDROLYSATE COMPRISING THE SAID ISOLATED PEPTIDES AND USE THEREOF” (BETAGRO PUBLIC COMPANY LIMITED, priority 2022, published 2026).
No end group written: not given here.

Assays:
sensory panel [1] = assay: Taste threshold in water (intrinsic taste), duo-trio tests; assay type: in vivo
Method: (§1) The threshold concentrations of 21 newly identified peptides were determined in water for the intrinsic taste and in model broth (pH 6.0 adjusted with 1% formic acid) for the taste modulating properties, respectively (Table 4). The peptides were dissolved, serially diluted 1:2, and presented to the panel using duo-trio-tests with ascending concentrations as reported in literatures. The geometric mean of the last and the second to last concentration was calculated and taken as the individual recognition threshold. The threshold value of the sensory panel was approximated by averaging the threshold values of the individuals in two independent sessions. [formula] • wherein • Cp: the threshold of a panelist, • C1: the first correctly evaluated concentration, • C0: the first misjudged concentration [formula] • wherein • Cs: the thresholds of total panelists, • Cp: the threshold of a panelist, • n: the number of panel members

[2] = Quantification of peptides in the hydrolyzed chicken plasma sample and DoT factors; conditions: ratio of concentration in hydrolyzed chicken plasma sample to taste threshold in model broth
Text: To identify the peptides which play a key role on taste-active and taste-modulating effects, not only the 21 newly identified peptides, but also literature-known basic tastants (e.g., amino acids, γ-glutamyl peptides, cations, anions, etc.) were quantified in the hydrolyzed chicken plasma sample. Focusing on the 21 newly identified peptides, the taste quality, taste thresholds, dose over threshold (DOT) factors and concentrations of the peptides in the hydrolyzed chicken plasma sample are shown in Table 6. The taste thresholds determined for the newly identified peptides (those are listed in Table 6) were used for the calculation of DoT factors which are defined as the ratio of the concentration of a substance and its corresponding taste threshold concentration. The DoT factors enable a first estimation of the taste contribution as substances with DoT factors≥1 most likely contribute directly to the perceived taste.

sensory panel [3] = assay: Taste threshold in model broth (taste modulating properties), duo-trio tests; assay type: in vivo; conditions: for Taste properties in model broth / Threshold in model broth: model broth pH 6.0; for Threshold in model broth: taste modulating threshold; for Taste threshold in model broth: as listed in Table 6
Method: as §1

sensory panel [4] = assay: as above; assay type: in vivo; conditions: as listed in Table 7
Panelists = assay: Salt isointensity test; assay type: in vivo; conditions: for Average perceived salt isointensity / Salt-taste enhancing or reducing property: peptide 1 mmol/L in model broth containing 50 mM NaCl; for Enhancement or reduction: versus 50 mM NaCl, isointensity above 50 = enhancement, below 50 = reduction, peptide 1 mmol/L
Method: To investigate the effects of peptides on the perceived saltiness, a salt isointensity test was performed according to literatures. In salt-isointensity test, the peptides (1 mmol/L) were spiked into model broth containing 50 mM NaCl and the panelists were asked to evaluate the intensity of saltiness compared with the following NaCl concentrations of 30, 40, 50, 60, 70, and 80 mmol/L. The results are shown in Table 5.

sensory panel [5] = assay: Taste threshold in commercial chicken soup, duo-trio tests; assay type: in vivo; conditions: for Taste threshold in food products, Commercial chicken soup: 3 g powder in 150 mL, spiked at 2 mmol/L, diluted
Text: To investigate the taste-modulating performance of the identified peptides in food products, the commercial chicken soup and model broth were used for further sensory experiments. According to the sensory experiment, the peptides such as Pro-Val-Leu-Lys (SEQ ID NO: 1), Pro-Leu-Pro-Arg (SEQ ID NO: 2), Glu-Ala-Glu-Phe-Asp (SEQ ID NO: 3), Pro-Gln-Pro-Glu-Arg (SEQ ID NO: 5), and Glu-Asp-Ala-Pro-Val-Leu-His (SEQ ID NO: 7) are spiked into the commercial chicken soup (Netto Marken-Discount AG&CO.KG, Maxhütte-Haidhof) and the model broth. According to the experiments, 3 g of the commercial chicken soup powder was dissolved in 150 mL boiling water. The peptides (each 2 mmol/L) were spiked into 20 mL solution of this solution. Afterwards, the taste threshold was determined by means of duo-trio-tests as previously described (using chicken soup as reference).

Substance	Threshold in water (sensory panel [1])	DoT factor [2]	Taste properties in model broth (sensory panel [3])	Threshold in model broth (sensory panel [3])	Taste properties in water (sensory panel [1])	Taste threshold in food products, Model broth (sensory panel [4])	Taste threshold in model broth (sensory panel [3])	Average perceived salt isointensity (Panelists)	Salt-taste enhancing or reducing property (Panelists)	Enhancement or reduction (Panelists)	Not differentiated up to max concentration tested in commercial chicken soup (sensory panel [5]; commercial chicken soup)	Taste threshold in food products, Commercial chicken soup (sensory panel [5]; commercial chicken soup)	Threshold in model broth, times lower than in commercial chicken soup (sensory panel [5]; chicken soup versus model broth)
Arg-Asn-Gly-Pro-Arg (RNGPR; Poultry) [SEQ ID NO: 17]	tasteless	0.0	kokumi, umami	101 µmol/L	–	–	–	–	–	–	–	–	–
EDAPVLH [SEQ ID NO: 7]	565 µmol/L	0.1	–	–	astringent	236 µmol/L	236 µmol/L	–	–	–	–	–	–
EDEVLATP [SEQ ID NO: 21]	894 µmol/L	–	–	96 µmol/L	–	–	–	59.8 mmol/L NaCl	salt-tase enhancing	20%	–	–	–
EETPSHD [SEQ ID NO: 9]	283 µmol/L	0.1	umami, kokumi	36 µmol/L	–	–	–	–	–	–	–	–	–
EEVEEEEVE [SEQ ID NO: 10]	233 µmol/L	0.1	umami, kokumi	34 µmol/L	–	–	–	–	–	–	–	–	–
EFDARPT [SEQ ID NO: 8]	tasteless	0.0	kokumi, salty	351 µmol/L	–	–	–	66.7 mmol/L NaCl	salt-tase enhancing	33%	–	–	–
EFDEKAPD [SEQ ID NO: 11]	865 µmol/L	–	–	67 µmol/L	bitter	–	–	62.1 mmol/L NaCl	salt-tase enhancing	24%	–	–	–
EFDEKPAD [SEQ ID NO: 6]	tasteless	–	–	94 µmol/L	–	–	–	60.0 mmol/L NaCl	salt-tase enhancing	20%	–	–	–
EGDSAAI [SEQ ID NO: 19]	tasteless	0.2	umami, kokumi	212 µmol/L	–	–	–	–	–	–	–	–	–
ENAPDQK [SEQ ID NO: 12]	907 µmol/L	0.2	kokumi, umami	137 µmol/L	–	–	–	–	–	–	–	–	–
EPEGDVHQ [SEQ ID NO: 20]	243 µmol/L	–	umami, kokumi	61 µmol/L	–	–	–	–	–	–	–	–	–
Glu-Ala-Glu-Phe-Asp (EAEFD; Poultry) [SEQ ID NO: 3]	116 µmol/L	–	–	–	–	95 µmol/L	95 µmol/L	43.0 mmol/L NaCl	salt-tase reducing	14%	–	–	–
Glu-Asp-Met-Ala-Pro (EDMAP; Poultry) [SEQ ID NO: 13]	1024 µmol/L	0.2	kokumi, salty	151 µmol/L	–	–	–	43.8 mmol/L NaCl	–	13%	–	–	–
Pro-Gln-Pro-Glu-Arg (PQPER; Poultry) [SEQ ID NO: 5]	705 µmol/L	0.0	–	133 µmol/L	–	133 µmol/L	–	–	–	–	> 2 mmol/L	No effect	–
Pro-Glu-Arg-Asn-Glu (PERNE; Poultry) [SEQ ID NO: 4]	100 µmol/L	0.1	–	231 µmol/L	–	–	–	–	–	–	–	–	–
Pro-Ile-Asn-Asp-Asn (PINDN; Poultry) [SEQ ID NO: 14]	tasteless	–	–	26 µmol/L	–	–	–	63.6 mmol/L NaCl	salt-tase enhancing	27%	–	–	–
Pro-Leu-Pro-Arg (PLPR; Poultry) [SEQ ID NO: 2]	296 µmol/L	0.0	umami, kokumi	112 µmol/L	astringent	112 µmol/L	–	–	–	–	–	418 µmol/L	4 times
Pro-Thr-Asp-Leu (PTDL; Poultry) [SEQ ID NO: 15]	tasteless	–	–	97 µmol/L	–	–	–	–	–	–	–	–	–
Pro-Val-Ala-Glu (PVAE; Poultry) [SEQ ID NO: 16]	688 µmol/L	0.7	kokumi, salty	243 µmol/L	–	–	–	62.0 mmol/L NaCl	salt-tase enhancing	24%	–	–	–
Pro-Val-Leu-Lys (PVLK; Poultry) [SEQ ID NO: 1]	tasteless	0.0	–	296 µmol/L	–	296 µmol/L	–	42.9 mmol/L NaCl	salt-tase reducing	14%	–	–	–
RAEDTATYY [SEQ ID NO: 18]	610 µmol/L	0.0	kokumi, umami	247 µmol/L	–	–	–	–	–	–	–	–	–
